Measured values as given in patent publication US11358965B2, “EGFR dimer disruptors and use of the same” (THE REGENTS OF THE UNIVERSITY OF MICHIGAN, priority 2018, dated 2022).

Columns and labels:
MCR5 cells = test: Clonogenic IC50, MCR5; assay type: cell-based; conditions: MCR5, MCR5
Description: It was determined if the response to Compound 8C correlates with inhibition of EGF-induced dimerization and degradation of EGFR. For this, PC9-AZR cells were treated for 1 hour with 1 μM Compound 8C and an additional 30 minutes with EGF (30 ng/ml) and 30 minutes with disuccinimidyl suberate (DSS, 150 μM) to cross-link interacting proteins. Lysates were prepared and immunoblotted with anti-EGFR antibodies.
(§1) The viability of cells upon treatment was assessed by CellTiter-Blue® reagent following the manufacturer's protocol in RKO, UM10B, UM1, MCR5, and UMCC92 cells. Briefly, 10,000 cells were plated in 96-well plate in quadruplets. One day after seeding, cells were treated with a range of concentrations (0.1 to 30 micromolar). 3-days post-treatment, cells were incubated with the CellTiter-Blue® reagent for 4 hr. Only the viable cells convert the redox dye (reszurin) into a fluorescent product (resofurin). The emission of fluorescence (excitation 560 nm) was measured at […]. The IC50 value was calculated as the mean concentration of compounds required to inhibit cell proliferation as measured by the fluorescence at […] by 50 percent compared to the vehicle-treated controls.

UM1 cells = test: Clonogenic IC50, UM1; assay type: cell-based
HCT-116 = test: NCI 60 cell line screen, HCT-116; assay type: cell-based, human; conditions: Colon Cancer
Description: (§2) The activity of Compound 8C was tested against 60 different human tumor cell lines at the National Cancer Institute, using the standard NCI 60 screening protocol.

UACC-257 = test: NCI 60 cell line screen, UACC-257; assay type: cell-based, human; conditions: Melanoma
Description: as §2

purified EGFR = target: T1, purified EGFR (Homo sapiens, UniProt P00533); test: Competition with Biotin-Disruptin for purified EGFR; assay type: binding; conditions: 15 minutes at 37° C.
T1 construct: WT-EGFR kinase domain (aa696-1022, active kinase); made in house; host or cells: SF9 insect cells
Description: To determine if Compound 8C competes for the same binding site on EGFR, Biotin-Disruptin-Avidin coupled beads were incubated with purified EGFR in the presence or absence of Compound 8C for 15 minutes at 37° C. The agarose beads were spun down, and the non-specific protein removed by washing in citrate buffer. The bound protein was released in Laemmli buffer and resolved by SDS page.

cells [1] = test: Cell Titer Blue % cell viable (24 hrs); assay type: cell-based; conditions: 24 h, Conc 3.75 μM
Description: as §1, with “3-days post-treatment, cells were incubated with the CellTiter-Blue® reagent for 4 hr.” left out

cells [2] = test: Clonogenic cellular assay; assay type: cell-based
[3] = test system: Ba/F3-AZR cells (L858R+T790M+C797S-EGFR); test: Osimertinib resistant Ba/F3-AZR ascites tumor model; assay type: in vivo, nude mice; conditions: single 30 mg/kg dose (Compound 8C i.p., osimertinib oral), 18 days after tumor cells
RKO cells = test: Clonogenic IC50, RKO; assay type: cell-based; conditions: Homo sapiens
[4] = Stability in human liver microsomes; assay type: in vitro ADME
SK-MEL-28 = test: NCI 60 cell line screen, SK-MEL-28; assay type: cell-based, human; conditions: Melanoma
Description: as §2

HL-60(TB) = test: NCI 60 cell line screen, HL-60(TB); assay type: cell-based, human; conditions: Leukemia
Description: as §2

SK-MEL-5 = test: NCI 60 cell line screen, SK-MEL-5; assay type: cell-based, human; conditions: Melanoma
Description: as §2

M14 = test: NCI 60 cell line screen, M14; assay type: cell-based, human; conditions: Melanoma
Description: as §2

UMSCC74B = UMSCC74B head and neck tumor model, daily for one week; assay type: in vivo
Description: Efficacy testing of Compound 8C in UMSCC74B, an EGFR driven, aggressive tumor model of the head and neck. Tumor bearing mice were treated with 30 mg/kg dose daily (Monday-Friday) for one week. This dose was selected based on single dose PK profile (see FIG. 8A). This treatment was safe and produced significant tumor growth delay (see FIG. 10).
Nude mice bearing either UMSCC74B ([…]) were treated with (30 mg/kg, daily for one week) or with vehicle (5% DMSO in PBS). Each group had at least 5 mice. Tumor volume and body weight was recorded 3-4 times a week, and change in the average tumor volume with time is plotted. The average loss in body weight during treatment was less than 10%. Error bar represents standard error of the mean.
For the Compound 8C treatment group, day 0 is defined as the first day of treatment. In vehicle control mice, day 0 was defined as the day when the tumor volume was closest to the mean tumor volume in Compound 8C treatment groups on the day of treatment initiation. To assess whether tumor volume growth rates differed by treatment, mixed effect models were fit with random intercept terms at the mouse levels to account for correlated outcomes over time within a tumor and between 2 tumors within a mouse. Monotherapy elicited a significant reduction in tumor growth rate after one week of dosing (see FIG. 10).

HCC-2998 = test: NCI 60 cell line screen, HCC-2998; assay type: cell-based, human; conditions: Colon Cancer
Description: as §2

UMCC92 cells = test: Clonogenic IC50, UMCC92; assay type: cell-based

T1 sequence (P00533 696-1022): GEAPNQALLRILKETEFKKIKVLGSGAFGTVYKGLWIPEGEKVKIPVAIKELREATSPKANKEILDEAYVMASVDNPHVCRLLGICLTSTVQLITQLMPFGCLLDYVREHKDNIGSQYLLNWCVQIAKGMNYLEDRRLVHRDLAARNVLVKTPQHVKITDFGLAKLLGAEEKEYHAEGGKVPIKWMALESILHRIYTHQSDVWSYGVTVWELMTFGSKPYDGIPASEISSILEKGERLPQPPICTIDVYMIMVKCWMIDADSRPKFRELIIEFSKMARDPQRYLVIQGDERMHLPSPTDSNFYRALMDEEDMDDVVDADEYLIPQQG

With `CN1CCC2(CC1)N=C(SCC(=O)Nc1cnc3ccccc3c1)C(c1ccc(Br)cc1)=N2` [Compound 8C, 2-((3-(4-bromophenyl)-8-methyl-1,4,8-triazaspiro[4.5]deca-1,3-dien-2-yl)thio)-N-(quinolin-3-yl)acetamide] the IC50 (MCR5 cells) was 18.6 µM, the IC50 (UM1 cells) was 0.5 µM and the “Percent Growth” value (HCT-116) was −90.7%. For the same compound, the “Percent Growth” value (UACC-257) was −61.2%, the “inhibition of Disruptin-EGFR binding” value (purified EGFR) was “Competitive inhibition” and the viability at 3.75 µM (cells [1]) was 68%. For the same compound, the “IC50 in the clonogenic cellular assay” value (cells [2]) was “sub-micromolar”, the survival [3] was “prolonged life” and the IC50 (RKO cells) was 1.6 µM. For the same compound, the “stability compared to pre lead (C95)” value [4] was “approximately 20 times”, the “Percent Growth” value (SK-MEL-28) was −70.1% and the “Percent Growth” value (HL-60(TB)) was −40.7%. For the same compound, the “Percent Growth” value (SK-MEL-5) was −96.2%, the “Percent Growth” value (M14) was −83.8% and the safety of treatment (UMSCC74B; 30 mg/kg dose daily (Monday-Friday) for one week) was “safe”. The “average loss in body weight during treatment” value (UMSCC74B; 30 mg/kg, daily for one week) was “less than 10%”, the tumor growth rates (UMSCC74B; 30 mg/kg, daily for one week, vs time-matched control (p=0.013) and overall control (p<0.001)) was “significantly lower” and the “Percent Growth” value (HCC-2998) was −51.3%. For the same compound, the IC50 (UMCC92 cells) was 0.2 µM.
